Test results as given in patent US20230364096A1, “USE OF A COMBINATION COMPRISING A BTK INHIBITOR FOR TREATING CANCERS” (BEIGENE SWITZERLAND GMBH, priority 2016, published 2023).

Key:
[1] = test system: REC-1/NK92MI MCL xenograft; assay: Human REC-1/NK92MI mantle cell lymphoma xenograft model; format: in vivo, NOD/SCID mice; conditions: Compound 1 2.5 mg/kg p.o. BID, obinutuzumab 2 mg/kg i.p. QW
Protocol: REC-1 cells were cultured in RPMI1640 complete medium supplemented with 10% (v/v) fetal bovine serum, and 100 µg/mL of penicillin and streptomycin. NK92MI/CD16V cell line, overexpressing CD16 and FcRγ chain, was established from parental cell line NK92MI. The cells were maintained in MEM alpha supplemented with 0.2 mM inositol; 0.1 mM 2-mercaptoethanol; 0.02 mM folic acid; 1×NEAA; adjust to a final concentration of 20% (v/v) fetal bovine serum and 100 µg/mL of penicillin and streptomycin. […]
(§1) On day 3 after inoculation, animals were randomly divided into four groups with 12 mice per group. […] Treatments were administered in a volume of 10 mL/kg body weight, assessed immediately before dosing and the volume dosed was adjusted accordingly. […] After implantation, primary tumor volume was measured in two dimensions using a calliper.
(§2) Individual body weight was recorded twice weekly, with mice being monitored daily for clinical signs of toxicity for the duration of the study. […]
Tumor volume was calculated using the formula: V = 0.5 × (a × b^2) where a and b are the long and short diameters of the tumor, respectively. Tumor growth inhibition (TGI) was calculated using the following formula: […]

TMD-8 DLBCL xenograft = assay: Human TMD-8 DLBCL xenograft model; format: in vivo, mice; conditions: for Tumor growth inhibition (TGI): day 46, Compound 1 7.5 mg/kg p.o. BID, obinutuzumab 10 mg/kg i.p. QW
Protocol: (§3) TMD-8 DLBCL cells were cultured in RPMI1640 complete medium supplemented with 10% (v/v) fetal bovine serum, and 100 µg/mL of penicillin and streptomycin. On the day of implantation, culture medium was replaced with fresh medium. Four hours later, media was removed and cells were collected as described above. Cells were re-suspended in cold (4° C.) PBS and same volume of matrigel was added to give a final concentration of 5×10^7 cells/mL for TMD-8 cells. Re-suspended cells were placed on ice prior to inoculation. The right flank region of each mouse was cleaned with 75% ethanol prior to cell inoculation. Animals were then injected subcutaneously with 1×10^7 TMD-8 cells in 200 µl of cell suspension in the right front flank via a 26-gauge needle.
On day 7 after inoculation, animals were randomly divided into 4 groups with 10 mice per group. […] Treatments were administered in a volume of 10 mL/kg body weight, assessed immediately before dosing and the volume dosed was adjusted accordingly. Compound 1 was administered by oral gavage (p.o.) twice daily (BID) and obinutuzumab was administered by intraperitoneal (i.p.) injection once every week (QW). After implantation, primary tumor volume was measured in two dimensions using a calliper.
(§4) Mice were euthanized using carbon dioxide when their tumor volume reached 2,500 mm^3 after twice measurements, the tumor was ulcerated, or body weight loss exceeded 20%.
(§5) Tumor volume was calculated using the formula: V = 0.5 × (a × b^2) where a and b are the long and short diameters of the tumor, respectively. Tumor growth inhibition (TGI) was calculated using the following formula:
(§6) • treated t = treated tumor volume at time t • placebo t = placebo tumor volume at time t

REC-1 MCL xenograft = assay: Human REC-1 MCL xenograft model; format: in vivo, mice; conditions: for tumor growth / anti-tumor effect (in words): Compound 1 7.5 mg/kg BID, Ibrutinib 25 mg/kg BID, rituximab 200 µg/dose i.p. Q4D; for Tumor growth inhibition (TGI): Compound 1 7.5 mg/kg p.o. BID, Ibrutinib 25 mg/kg p.o. BID
Protocol: as §3, with “REC-1” for “TMD-8 DLBCL”, “REC-1.” for “TMD-8 cells.”, “REC-1” for “TMD-8”
On day 9 after inoculation, animals were randomly divided into 6 groups with 7 mice per group. […] After implantation, primary tumor volume was measured in two dimensions using a calliper.
as §4, with “Individual body weight was recorded twice weekly, with mice being monitored daily for clinical signs of toxicity for the duration of the study. Mice” for “Mice”
as §5, §6

[2] = test system: A431 epidermoid carcinoma allogeneic model (A431 cells and human PBMCs); assay: Human A431 epidermoid carcinoma allogeneic model (Compound 1 and Mab 1); format: in vivo, NOD/SCID mice; conditions: Compound 1 15 mg/kg p.o. BID; Mab 1 10 mg/kg i.p. QW
Protocol: (§7) On the day of implantation, human peripheral blood mononuclear cells (PBMCs) were isolated from 150 mL blood donated by a healthy volunteer. Briefly, peripheral blood was collected into vacuum blood collection tubes containing sodium heparin. PBMCs were separated by density gradient centrifugation using Histopaque-1077 and washed one time by Dulbecco’s Phosphate Buffered Saline (DPBS). The cell pellet was suspended with DPBS at appropriate volume to give a final concentration of 1×10^8 cells/mL and placed on ice prior to inoculation.
(§8) A431 cells were cultured in DMEM complete medium supplemented with 10% (v/v) fetal bovine serum, and 100 µg/mL of penicillin and streptomycin. On the day of implantation, culture medium was replaced with fresh medium. […]
as §1, with “Starting from” for “On”, “0” for “3”, “after cell” for “after”, “10-11” for “12”
as §2
(§9) Tumor volume was calculated using the formula: V = 0.5 × (a × b^2) where a and b are the long and short diameters of the tumor, respectively.

[3] = test system: A431 epidermoid carcinoma allogeneic model (A431 cells and human PBMCs); assay: Human A431 epidermoid carcinoma allogeneic model (Compound 1 and pembrolizumab); format: in vivo, NOD/SCID mice; conditions: Compound 1 15 mg/kg p.o. BID; pembrolizumab 10 mg/kg i.p. QW
Protocol: as §7, with “5× 10^7” for “1×10^8”
as §8
as §1, with “Starting from” for “On”, “0” for “3”, “after cell” for “after”, “10-11” for “12”
as §2, §9

[4] = test system: obinutuzumab-induced ADCC (IFN-γ secretion); assay: Obinutuzumab-induced ADCC assessed by IFN-γ secretion in co-culture of NK92MI cells and Mino cells; format: cell-based, human; conditions: various concentrations
Protocol: Mino cells were cultured in RPMI1640 complete medium supplemented with 10% (v/v) fetal bovine serum, and 100 µg/mLof penicillin and streptomycin. NK92MI/CD16V cell line, overexpressing CD16 and FcRγ chain, was established from parental cell line NK92MI. The cells were maintained in MEM alpha supplemented with 0.2 mM inositol; 0.1 mM 2-mercaptoethanol; 0.02 mM folic acid; 1 ×NEAA; adjust to a final concentration of 20% (v/v) fetal bovine serum and 100 µg/mL of penicillin and streptomycin.
0130] Mino cells (2×10^4cells/well) as the target cells (T) were plated into 96-well plate in triplicates. Cells were treated with vehicle or various concentrations of BTK inhibitors for one hour, followed by co-seeding with NK92MI cells (4×10^4cells/well, as the effector cells (E)) and co-treatment with vehicle or obinutuzumab (2 ug/well) for additional 24 hrs. After incubation, the cell-free supernatants of each well were collected, and the levels of human IFN-γ were measured using Human IFN-γ ELISA Ready-SET-Go kit.

[5] = number of mice, 10 mice per group, Compound 1 7.5 mg/kg, obinutuzumab 10 mg/kg

Compound	Tumor growth inhibition (TGI) (TMD-8 DLBCL xenograft) [%]	Objective responses: total (CR+PR) (TMD-8 DLBCL xenograft; [5])	tumor growth / anti-tumor effect (in words) (REC-1 MCL xenograft)	Tumor growth inhibition (TGI) (REC-1 MCL xenograft) [%]	anti-tumor effect on tumor volume (in words) [3]	other results
C=CC(=O)N1CCC([C@@H]2CCNc3c(C(N)=O)c(-c4ccc(Oc5ccccc5)cc4)nn32)CC1 [Compound 1, (S)-7-(1-acryloylpiperidin-4-yl)-2-(4-phenoxyphenyl)-4,5,6,7-tetra-hydropyrazolo[1,5-a]pyrimidine-3-carboxamide]	81	5	tumor growth was retarded	85	Neither Compound 1 nor pembrolizumab showed anti-tumor effect	Tumor growth inhibition (TGI) ([1]; day 23): 72%; Objective responses: CR (TMD-8 DLBCL xenograft; [5]): 1; anti-tumor effect on tumor volume (in words) [2]: no anti-tumor effect; inhibition of IFN-γ secretion (in words) [4]: much less effective
C=CC(=O)N1CCC[C@@H](n2nc(-c3ccc(Oc4ccccc4)cc3)c3c(N)ncnc32)C1 [Ibrutinib, reference compound]				83		
obinutuzumab: anti-CD20 mAb (Gazyva®) [reference compound]	61	2				anti-tumor effect (in words) [1]: no anti-tumor effect; Objective responses: PR (TMD-8 DLBCL xenograft; [5]): 2
pembrolizumab: humanized monoclonal IgG4 antibody against PD-1 [reference compound]					Neither Compound 1 nor pembrolizumab showed anti-tumor effect	
rituximab: anti-CD20 mAb [reference compound]			tumor growth was retarded			
